Assay results from the NIST ThermoML archive (doi:10.1021/je700294p).

Tests used:
[1] = refractive index (Na D-line) (dimensionless); details: 101.33 kPa, Liquid, Standard Abbe refractometry
[2] = 101.33 kPa, Liquid
[3] = excess molar enthalpy (molar enthalpy of mixing); xn = mol fraction of the nth substance listed; details: 101 kPa, Liquid
[4] = xn = mol fraction of the nth substance listed; details: 101 kPa, Liquid

CCCC[n+]1cccc(C)c1.F[B-](F)(F)F [1-butyl-3-methylpyridinium tetrafluoroborate]
Details | mass density, [2] [kg/m3] | refractive index, [1]
298.15 K | 1182.19 | 1.4473
318.15 K | 1168.31 | 1.4422

CCCC[n+]1cccc(C)c1.F[B-](F)(F)F [1-butyl-3-methylpyridinium tetrafluoroborate] + CCCCO
Details | excess molar enthalpy [kcal/mol] | mass density [kg/m3]
[3], 318.15 K, x1 = 0.0098 | 0.0361 | –
[3], 318.15 K, x1 = 0.025 | 0.0684 | –
[3], 318.15 K, x1 = 0.0464 | 0.138 | –
[3], 318.15 K, x1 = 0.3603 | 0.681 | –
[3], 318.15 K, x1 = 0.3932 | 0.684 | –
[3], 318.15 K, x1 = 0.445 | 0.677 | –
[3], 318.15 K, x1 = 0.5101 | 0.652 | –
[3], 318.15 K, x1 = 0.5852 | 0.591 | –
[3], 318.15 K, x1 = 0.6705 | 0.503 | –
[3], 318.15 K, x1 = 0.7667 | 0.378 | –
[3], 318.15 K, x1 = 0.8531 | 0.264 | –
[3], 318.15 K, x1 = 0.9346 | 0.125 | –
[4], 298.15 K, x1 = 0.0166 | – | 819.7
[4], 298.15 K, x1 = 0.7641 | – | 1136.6
[4], 298.15 K, x1 = 0.8166 | – | 1147.7
[4], 298.15 K, x1 = 0.8558 | – | 1155.7
[4], 298.15 K, x1 = 0.904 | – | 1165.1
[4], 318.15 K, x1 = 0.0191 | – | 805.5
[4], 318.15 K, x1 = 0.6961 | – | 1107.5
[4], 318.15 K, x1 = 0.7777 | – | 1125.9
[4], 318.15 K, x1 = 0.8535 | – | 1141.6
[4], 318.15 K, x1 = 0.9084 | – | 1152.1
[4], 318.15 K, x1 = 0.9479 | – | 1159.4

CCCC[n+]1cccc(C)c1.F[B-](F)(F)F [1-butyl-3-methylpyridinium tetrafluoroborate] + CCCO
Details | excess molar enthalpy [kcal/mol] | mass density [kg/m3]
[3], 298.15 K, x1 = 0.0139 | 0.039 | –
[3], 298.15 K, x1 = 0.0242 | 0.0564 | –
[3], 298.15 K, x1 = 0.0278 | 0.0681 | –
[3], 298.15 K, x1 = 0.3397 | 0.56 | –
[3], 298.15 K, x1 = 0.3707 | 0.56 | –
[3], 298.15 K, x1 = 0.4045 | 0.552 | –
[3], 298.15 K, x1 = 0.4278 | 0.544 | –
[3], 298.15 K, x1 = 0.4642 | 0.531 | –
[3], 298.15 K, x1 = 0.498 | 0.506 | –
[3], 298.15 K, x1 = 0.5458 | 0.47 | –
[3], 298.15 K, x1 = 0.5983 | 0.416 | –
[3], 298.15 K, x1 = 0.6621 | 0.364 | –
[3], 298.15 K, x1 = 0.7278 | 0.298 | –
[3], 298.15 K, x1 = 0.7939 | 0.229 | –
[3], 298.15 K, x1 = 0.8653 | 0.164 | –
[3], 298.15 K, x1 = 0.9335 | 0.0973 | –
[3], 318.15 K, x1 = 0.0232 | 0.0997 | –
[3], 318.15 K, x1 = 0.052 | 0.185 | –
[3], 318.15 K, x1 = 0.0852 | 0.276 | –
[3], 318.15 K, x1 = 0.1233 | 0.371 | –
[3], 318.15 K, x1 = 0.1608 | 0.46 | –
[3], 318.15 K, x1 = 0.2011 | 0.534 | –
[3], 318.15 K, x1 = 0.2044 | 0.552 | –
[3], 318.15 K, x1 = 0.2311 | 0.583 | –
[3], 318.15 K, x1 = 0.2591 | 0.611 | –
[3], 318.15 K, x1 = 0.2896 | 0.634 | –
[3], 318.15 K, x1 = 0.3223 | 0.652 | –
[3], 318.15 K, x1 = 0.3585 | 0.663 | –
[3], 318.15 K, x1 = 0.3982 | 0.664 | –
[3], 318.15 K, x1 = 0.4404 | 0.655 | –
[3], 318.15 K, x1 = 0.4891 | 0.634 | –
[3], 318.15 K, x1 = 0.5441 | 0.598 | –
[3], 318.15 K, x1 = 0.6073 | 0.537 | –
[3], 318.15 K, x1 = 0.674 | 0.457 | –
[3], 318.15 K, x1 = 0.7504 | 0.361 | –
[3], 318.15 K, x1 = 0.8323 | 0.252 | –
[3], 318.15 K, x1 = 0.9131 | 0.143 | –
[4], 298.15 K, x1 = 0.016 | – | 816.7
[4], 298.15 K, x1 = 0.4528 | – | 1066.5
[4], 298.15 K, x1 = 0.494 | – | 1079.3
[4], 298.15 K, x1 = 0.5262 | – | 1088.6
[4], 298.15 K, x1 = 0.5959 | – | 1106.9
[4], 298.15 K, x1 = 0.6934 | – | 1129.5
[4], 298.15 K, x1 = 0.7543 | – | 1141.9
[4], 298.15 K, x1 = 0.7993 | – | 1150.4
[4], 298.15 K, x1 = 0.8582 | – | 1160.4
[4], 298.15 K, x1 = 0.8962 | – | 1166.6
[4], 318.15 K, x1 = 0.0143 | – | 798.4
[4], 318.15 K, x1 = 0.0249 | – | 808.8
[4], 318.15 K, x1 = 0.0477 | – | 830.6
[4], 318.15 K, x1 = 0.1003 | – | 873.4
[4], 318.15 K, x1 = 0.1222 | – | 890.6
[4], 318.15 K, x1 = 0.1492 | – | 909.3
[4], 318.15 K, x1 = 0.2 | – | 940.8
[4], 318.15 K, x1 = 0.2295 | – | 957.5
[4], 318.15 K, x1 = 0.3112 | – | 997.8
[4], 318.15 K, x1 = 0.4002 | – | 1033.6
[4], 318.15 K, x1 = 0.4285 | – | 1043.6
[4], 318.15 K, x1 = 0.4635 | – | 1055.3
[4], 318.15 K, x1 = 0.5638 | – | 1084.7
[4], 318.15 K, x1 = 0.6072 | – | 1095.8
[4], 318.15 K, x1 = 0.6405 | – | 1103.5
[4], 318.15 K, x1 = 0.7096 | – | 1118.9
[4], 318.15 K, x1 = 0.8001 | – | 1136.9
[4], 318.15 K, x1 = 0.8522 | – | 1145.7
[4], 318.15 K, x1 = 0.9028 | – | 1154.2

CCCC[n+]1cccc(C)c1.F[B-](F)(F)F [1-butyl-3-methylpyridinium tetrafluoroborate] + CCO
Details | excess molar enthalpy [kcal/mol] | mass density [kg/m3]
[3], 298.15 K, x1 = 0.0052 | 0.0354 | –
[3], 298.15 K, x1 = 0.0159 | 0.0989 | –
[3], 298.15 K, x1 = 0.0279 | 0.148 | –
[3], 298.15 K, x1 = 0.0457 | 0.203 | –
[3], 298.15 K, x1 = 0.0691 | 0.26 | –
[3], 298.15 K, x1 = 0.0972 | 0.312 | –
[3], 298.15 K, x1 = 0.1132 | 0.338 | –
[3], 298.15 K, x1 = 0.1263 | 0.362 | –
[3], 298.15 K, x1 = 0.128 | 0.368 | –
[3], 298.15 K, x1 = 0.145 | 0.396 | –
[3], 298.15 K, x1 = 0.1585 | 0.405 | –
[3], 298.15 K, x1 = 0.1639 | 0.418 | –
[3], 298.15 K, x1 = 0.1838 | 0.445 | –
[3], 298.15 K, x1 = 0.2062 | 0.47 | –
[3], 298.15 K, x1 = 0.2305 | 0.495 | –
[3], 298.15 K, x1 = 0.2577 | 0.515 | –
[3], 298.15 K, x1 = 0.2878 | 0.531 | –
[3], 298.15 K, x1 = 0.3217 | 0.544 | –
[3], 298.15 K, x1 = 0.3623 | 0.546 | –
[3], 298.15 K, x1 = 0.4085 | 0.527 | –
[3], 298.15 K, x1 = 0.4689 | 0.484 | –
[3], 298.15 K, x1 = 0.5396 | 0.425 | –
[3], 298.15 K, x1 = 0.6277 | 0.348 | –
[3], 298.15 K, x1 = 0.7386 | 0.257 | –
[3], 298.15 K, x1 = 0.8712 | 0.14 | –
[3], 298.15 K, x1 = 0.9405 | 0.0727 | –
[3], 318.15 K, x1 = 0.0123 | 0.0626 | –
[3], 318.15 K, x1 = 0.0273 | 0.129 | –
[3], 318.15 K, x1 = 0.0472 | 0.201 | –
[3], 318.15 K, x1 = 0.0704 | 0.269 | –
[3], 318.15 K, x1 = 0.098 | 0.342 | –
[3], 318.15 K, x1 = 0.1279 | 0.411 | –
[3], 318.15 K, x1 = 0.1612 | 0.475 | –
[3], 318.15 K, x1 = 0.1789 | 0.508 | –
[3], 318.15 K, x1 = 0.2034 | 0.544 | –
[3], 318.15 K, x1 = 0.2335 | 0.577 | –
[3], 318.15 K, x1 = 0.2681 | 0.605 | –
[3], 318.15 K, x1 = 0.3063 | 0.627 | –
[3], 318.15 K, x1 = 0.3498 | 0.644 | –
[3], 318.15 K, x1 = 0.4055 | 0.645 | –
[3], 318.15 K, x1 = 0.4787 | 0.615 | –
[3], 318.15 K, x1 = 0.5648 | 0.549 | –
[3], 318.15 K, x1 = 0.6576 | 0.451 | –
[3], 318.15 K, x1 = 0.7668 | 0.326 | –
[3], 318.15 K, x1 = 0.881 | 0.184 | –
[4], 298.15 K, x1 = 0.0518 | – | 851.1
[4], 298.15 K, x1 = 0.0719 | – | 872.9
[4], 298.15 K, x1 = 0.1054 | – | 905.6
[4], 298.15 K, x1 = 0.1999 | – | 975.5
[4], 298.15 K, x1 = 0.2539 | – | 1006.2
[4], 298.15 K, x1 = 0.3 | – | 1028.2
[4], 298.15 K, x1 = 0.4054 | – | 1068.6
[4], 298.15 K, x1 = 0.5082 | – | 1098.9
[4], 298.15 K, x1 = 0.5895 | – | 1118
[4], 298.15 K, x1 = 0.664 | – | 1133
[4], 298.15 K, x1 = 0.7275 | – | 1144.5
[4], 298.15 K, x1 = 0.7682 | – | 1151
[4], 318.15 K, x1 = 0.0401 | – | 821.1
[4], 318.15 K, x1 = 0.0671 | – | 851
[4], 318.15 K, x1 = 0.0992 | – | 882.7
[4], 318.15 K, x1 = 0.1497 | – | 924.5
[4], 318.15 K, x1 = 0.2531 | – | 989.5
[4], 318.15 K, x1 = 0.3062 | – | 1015.1
[4], 318.15 K, x1 = 0.4041 | – | 1053
[4], 318.15 K, x1 = 0.5002 | – | 1082.2
[4], 318.15 K, x1 = 0.5998 | – | 1106.3
[4], 318.15 K, x1 = 0.6632 | – | 1118.8
[4], 318.15 K, x1 = 0.7118 | – | 1127.7
[4], 318.15 K, x1 = 0.7904 | – | 1141
